Data published in publication PMC4487512 (Biochemical pharmacology, 2009).
Marks after values point to notes of the source that are not given here.

Assays:
[1] = human, known in vivo clearance values; ref literature (citation not given); cited from earlier work
[2] = tested on: cryopreserved human hepatocytes; details: for HμREL clearance CLhurel: flow 4.5 μL/min/chip, 30,000 hepatocytes per chamber, 100 μL; for Depletion of the parent compound, HμREL device: human hepatocytes under flow, at 24 h
[3] = tested on: cryopreserved human hepatocytes; details: at 24 h

| HμREL clearance CLhurel [2] | Structure (SMILES) | In vivo clearance [1] [mL/min/kg] | Depletion of the parent compound, static culture system [3] | Depletion of the parent compound, HμREL device [2] |
| --- | --- | --- | --- | --- |
| 1.13 μL/min/chip | CCCc1nn(C)c2c(=O)[nH]c(-c3cc(S(=O)(=O)N4CCN(C)CC4)ccc3OCC)nc12 [Sildenafil, sildenafil] | 6.0 ± 1.1 | – | – |
| 3.13 μL/min/chip | O=C1CC2(CCCC2)CC(=O)N1CCCCN1CCN(c2ncccn2)CC1 [Buspirone, buspirone] | – | – | – |
| 0.35 μL/min/chip | CC(C)(C)NC[C@H](O)COc1nsnc1N1CCOCC1 [Timolol, timolol] | 7.7 ± 1.2 | – | – |
| – | NC(=O)N1c2ccccc2C=Cc2ccccc21 [Carbamazepine, carbamazepine] | 1.3 ± 0.5 | did not show significant depletion | did not show significant depletion |

| Structure (SMILES) | HμREL clearance CLhurel [2] | In vivo clearance [1] [mL/min/kg] | Depletion of the parent compound, static culture system [3] | Depletion of the parent compound, HμREL device [2] |
| --- | --- | --- | --- | --- |
| Cn1c(=O)c2c(ncn2C)n(C)c1=O [Caffeine, caffeine] | 0.01^a μL/min/chip | – | did not show significant depletion | did not show significant depletion |
